From ChEMBL document CHEMBL4665623, “Rational drug design for androgen receptor and glucocorticoids receptor dual antagonist” (Eur J Med Chem, 2019)
pIC50: −log10 of the molar value.

Legend:
[1] = biological target: T1, Androgen receptor (Homo sapiens) (UniProt P10275); experiment: Antagonist activity at recombinant androgen receptor (unknown origin) transfected in human PC-3 cells co-transfected with PSA and luciferase at 10 uM incubated for 24 hrs by dual luciferase reporter gene assay relative to control; type: cell-based
T1 sequence (whole entry): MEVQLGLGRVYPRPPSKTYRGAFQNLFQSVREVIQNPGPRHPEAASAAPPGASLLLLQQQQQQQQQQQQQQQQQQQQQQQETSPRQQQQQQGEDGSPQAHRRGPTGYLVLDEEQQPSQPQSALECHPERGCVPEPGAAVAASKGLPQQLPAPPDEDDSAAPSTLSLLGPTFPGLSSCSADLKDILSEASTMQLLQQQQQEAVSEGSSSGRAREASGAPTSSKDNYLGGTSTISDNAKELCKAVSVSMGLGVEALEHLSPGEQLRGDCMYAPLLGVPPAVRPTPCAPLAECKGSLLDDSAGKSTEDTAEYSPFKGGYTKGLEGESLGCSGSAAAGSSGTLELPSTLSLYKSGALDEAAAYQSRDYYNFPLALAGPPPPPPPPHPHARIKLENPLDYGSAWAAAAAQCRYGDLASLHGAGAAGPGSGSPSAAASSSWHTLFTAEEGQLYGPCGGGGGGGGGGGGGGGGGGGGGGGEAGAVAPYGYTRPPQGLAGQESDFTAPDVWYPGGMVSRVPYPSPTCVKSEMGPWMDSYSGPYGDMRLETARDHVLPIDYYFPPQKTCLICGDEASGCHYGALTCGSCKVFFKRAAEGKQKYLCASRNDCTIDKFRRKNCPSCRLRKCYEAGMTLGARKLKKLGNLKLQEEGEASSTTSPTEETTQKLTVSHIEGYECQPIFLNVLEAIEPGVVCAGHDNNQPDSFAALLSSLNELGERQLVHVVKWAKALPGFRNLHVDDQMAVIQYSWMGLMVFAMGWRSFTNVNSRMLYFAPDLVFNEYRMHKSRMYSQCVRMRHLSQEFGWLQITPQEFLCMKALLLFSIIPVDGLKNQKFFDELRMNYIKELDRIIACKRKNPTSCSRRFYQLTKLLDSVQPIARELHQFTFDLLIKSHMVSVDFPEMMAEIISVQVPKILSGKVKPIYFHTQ

[2] = biological target: T2, Androgen receptor (Rattus norvegicus) (UniProt P15207); conditions: filed as antagonist, time 1.0 min
T2 sequence (whole entry): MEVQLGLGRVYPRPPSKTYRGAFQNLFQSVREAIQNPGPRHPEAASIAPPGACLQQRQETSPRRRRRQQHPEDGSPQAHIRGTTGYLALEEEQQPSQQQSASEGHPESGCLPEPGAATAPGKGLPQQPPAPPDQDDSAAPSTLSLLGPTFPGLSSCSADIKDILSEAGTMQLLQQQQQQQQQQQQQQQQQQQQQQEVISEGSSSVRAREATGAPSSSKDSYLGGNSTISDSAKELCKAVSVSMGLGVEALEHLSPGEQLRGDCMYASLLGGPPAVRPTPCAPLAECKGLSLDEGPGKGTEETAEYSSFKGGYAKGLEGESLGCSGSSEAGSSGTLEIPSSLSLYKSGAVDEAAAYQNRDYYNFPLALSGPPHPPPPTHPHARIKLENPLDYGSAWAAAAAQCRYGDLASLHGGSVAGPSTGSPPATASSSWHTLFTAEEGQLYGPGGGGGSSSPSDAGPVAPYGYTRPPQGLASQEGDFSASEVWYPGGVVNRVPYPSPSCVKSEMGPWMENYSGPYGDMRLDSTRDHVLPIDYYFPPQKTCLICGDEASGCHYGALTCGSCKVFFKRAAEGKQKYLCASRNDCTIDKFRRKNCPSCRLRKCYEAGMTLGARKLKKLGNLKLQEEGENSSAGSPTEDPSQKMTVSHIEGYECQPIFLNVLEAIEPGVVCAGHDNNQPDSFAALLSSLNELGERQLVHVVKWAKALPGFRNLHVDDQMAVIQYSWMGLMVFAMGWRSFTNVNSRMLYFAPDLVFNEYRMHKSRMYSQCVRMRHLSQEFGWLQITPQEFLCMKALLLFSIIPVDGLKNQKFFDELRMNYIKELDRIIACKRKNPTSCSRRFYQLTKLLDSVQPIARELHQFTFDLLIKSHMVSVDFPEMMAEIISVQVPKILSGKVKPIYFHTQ

Androgen receptor = biological target: T3, Androgen receptor (Homo sapiens, UniProt P10275); experiment: Antagonist activity at recombinant androgen receptor (unknown origin) transfected in human LNCaP cells co-transfected with PSA and luciferase incubated for 24 hrs by dual luciferase reporter gene assay; type: cell-based
T3 sequence (P10275 whole entry): T1 sequence (whole entry)

[3] = Effect on androgen receptor expression in human LNCaP cells at 1 and 10 uM incubated for 24 hrs by Western blot analysis; type: ADME, cell-based; conditions: dose 1-10 µM
[4] = Effect on glucocorticoid receptor expression in human PC-3 cells at 10 uM incubated for 24 hrs by Western blot analysis; type: ADME, cell-based; conditions: pc-3, 24 h
[5] = biological target: T4, Glucocorticoid receptor (Homo sapiens) (UniProt P04150); conditions: filed as antagonist, time 1.0 min
T4 sequence (whole entry): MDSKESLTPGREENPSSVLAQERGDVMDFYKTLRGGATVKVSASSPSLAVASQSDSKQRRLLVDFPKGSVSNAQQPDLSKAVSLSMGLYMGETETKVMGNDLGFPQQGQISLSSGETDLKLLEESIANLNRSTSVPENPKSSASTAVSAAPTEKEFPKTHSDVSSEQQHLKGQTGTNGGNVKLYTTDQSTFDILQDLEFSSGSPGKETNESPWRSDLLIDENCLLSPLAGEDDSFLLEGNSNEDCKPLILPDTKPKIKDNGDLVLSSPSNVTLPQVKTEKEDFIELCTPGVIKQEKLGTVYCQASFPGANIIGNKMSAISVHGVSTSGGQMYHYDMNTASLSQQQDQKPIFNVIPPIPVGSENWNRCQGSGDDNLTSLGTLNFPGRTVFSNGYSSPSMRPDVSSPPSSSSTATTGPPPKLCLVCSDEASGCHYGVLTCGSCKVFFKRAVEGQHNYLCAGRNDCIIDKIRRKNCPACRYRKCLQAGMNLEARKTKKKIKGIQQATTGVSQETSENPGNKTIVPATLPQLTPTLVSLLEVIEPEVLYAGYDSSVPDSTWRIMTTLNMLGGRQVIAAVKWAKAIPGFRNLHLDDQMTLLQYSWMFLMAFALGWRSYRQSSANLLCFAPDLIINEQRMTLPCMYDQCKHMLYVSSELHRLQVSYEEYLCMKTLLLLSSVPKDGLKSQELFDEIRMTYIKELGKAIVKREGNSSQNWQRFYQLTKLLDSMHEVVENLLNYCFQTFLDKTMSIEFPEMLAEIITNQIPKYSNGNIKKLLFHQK

[6] = Antiproliferative activity against human 22Rv1 cells assessed as reduction in cell growth incubated for 72 hrs by MTT assay; conditions: H22, 72 h
LNCaP = experiment: Antiproliferative activity against human LNCAP cells assessed as reduction in cell growth incubated for 72 hrs by MTT assay

| SMILES | inhibition [1] | also measured |
| --- | --- | --- |
| CCc1ccc(-c2nn(C)c(=O)c3c2CCCC3)cc1S(=O)(=O)NCc1cccc(OC)c1 | > 20% | – |
| CCOC(=O)c1ccc(NC(=O)c2cccc(S(=O)(=O)N3CCCc4ccccc43)c2)s1 | – | Kapp [2]: 15 µM; pIC50 (Androgen receptor): 5.69; Activity [3]: Non-Toxic; Activity [4]: Non-Toxic |
| CC#C[C@]1(O)CC[C@H]2[C@@H]3CCC4=CC(=O)CCC4=C3[C@@H](c3ccc(N(C)C)cc3)C[C@@]21C | – | Kapp [5]: 32 µM |
| COc1cc2cc(C(=O)N[C@H](C)C(=O)Nc3nc4ccccc4s3)[nH]c2c(OC)c1OC | > 20% | – |
| Cc1nc(-c2ccc(C(C)C)c(S(=O)(=O)Nc3cccc(C#N)c3)c2)cs1 | > 20% | – |
| COc1cccc(-c2ccc(N3CCN(C(=O)CN(Cc4ccccc4)C(=O)c4ccccc4C)CC3)nn2)c1 | > 20% | – |
| COc1ccccc1[C@H]1[C@H](Oc2cccc(C#N)c2)C(=O)N1Cc1cccc(N2CCCC2=O)c1 | > 20% | – |
| CCOC(=O)C1CCN(C(=O)Cc2ccc(N(Cc3ccccc3)C(=O)COc3ccccc3)cc2)CC1 | > 20% | – |
| COc1ccc([C@H](NC(=O)c2cccc(S(=O)(=O)N3C[C@H](C)C[C@@H](C)C3)c2)c2nccn2C)cc1 | > 20% | – |
| NC(=O)c1ccn(-c2cccc(NC(=O)C3(NC(=O)NCc4ccccc4)CCCC3)c2)n1 | > 20% | – |
| CNC(=O)c1ccc(N2C(=S)N(c3ccc(C#N)c(C(F)(F)F)c3)C(=O)C2(C)C)cc1F [ENZALUTAMIDE] | – | pIC50 [6]: < 4.40; pIC50 (LNCaP): 5.10; Kapp [2]: 24 µM |
